Reference: ChEMBL document CHEMBL3879915, “Methods of inhibiting PRMT5” (2014)

Experiments:
[1] = target: Protein arginine N-methyltransferase 5 (Homo sapiens, UniProt O14744); assay: Inhibition of PRMT5 in human Z138 cells assessed as decrease in di-methyl arginine levels after 96 hrs by Western blot method; format: cell-based
PRMT5/MEP50 complex = PRMT5/MEP50 complex (Homo sapiens, UniProt O14744); assay: Inhibition of recombinant human fetal brain FLAG-tagged PRMT5/full length human testis 6His-tagged MEP50 expressed in baculovirus infected insect Sf9 cells using human histone H4 (1 to 15 residues) as substrate preincubated for 30 mins followed by [3H]-SAM addition
[2] = Antiproliferative activity against human Z138 cells assessed as inhibition of cell viability after 5 days by Cell-Titer Glo assay; format: functional, cell-based; settings: Z-138, 120 h

Sequence of PRMT5/MEP50 complex (O14744 whole entry, the tested form may be a part): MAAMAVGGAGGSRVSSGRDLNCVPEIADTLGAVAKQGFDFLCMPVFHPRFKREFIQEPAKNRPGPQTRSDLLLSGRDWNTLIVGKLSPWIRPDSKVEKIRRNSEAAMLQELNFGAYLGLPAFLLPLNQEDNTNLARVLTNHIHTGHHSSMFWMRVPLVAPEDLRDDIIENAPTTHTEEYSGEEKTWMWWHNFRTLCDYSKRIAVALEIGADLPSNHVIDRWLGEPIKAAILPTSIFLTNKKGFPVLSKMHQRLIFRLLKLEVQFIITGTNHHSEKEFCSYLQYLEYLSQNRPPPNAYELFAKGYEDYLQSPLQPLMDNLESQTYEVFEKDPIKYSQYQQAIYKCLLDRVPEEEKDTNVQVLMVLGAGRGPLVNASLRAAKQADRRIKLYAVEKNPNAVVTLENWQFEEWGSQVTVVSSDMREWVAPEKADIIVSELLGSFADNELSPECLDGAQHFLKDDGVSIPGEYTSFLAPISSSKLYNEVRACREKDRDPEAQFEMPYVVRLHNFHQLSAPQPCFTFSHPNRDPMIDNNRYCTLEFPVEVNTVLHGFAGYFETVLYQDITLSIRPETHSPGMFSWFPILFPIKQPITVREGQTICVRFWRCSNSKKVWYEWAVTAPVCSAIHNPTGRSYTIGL
Sequence of PRMT5/MEP50 complex (Q9BQA1 whole entry, further chain, the tested form may be a part): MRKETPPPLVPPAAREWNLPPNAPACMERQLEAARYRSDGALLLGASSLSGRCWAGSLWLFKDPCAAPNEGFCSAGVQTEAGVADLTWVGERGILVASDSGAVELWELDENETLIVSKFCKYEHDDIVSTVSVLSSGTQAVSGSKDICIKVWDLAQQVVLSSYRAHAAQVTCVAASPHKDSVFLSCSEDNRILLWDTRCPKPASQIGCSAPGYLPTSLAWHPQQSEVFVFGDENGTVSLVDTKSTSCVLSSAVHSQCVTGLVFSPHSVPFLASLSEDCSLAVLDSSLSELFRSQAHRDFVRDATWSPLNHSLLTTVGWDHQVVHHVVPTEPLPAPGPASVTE
Sequence of Protein arginine N-methyltransferase 5 (O14744 whole entry, the tested form may be a part): as the sequence (O14744 whole entry, the tested form may be a part) above

Compound | EC50 [1] [nM] | IC50 (PRMT5/MEP50 complex) [nM] | EC50 [2] [nM]
NC(=O)c1ccc(-c2cccc(OCC(O)CN3CCc4ccccc4C3)c2)cc1 (stereo unspecified) | 1000 to 10000 | 101 to 1000 | > 20000
COC(=O)c1cncc(-c2cccc(OCC(O)CN3CCc4ccccc4C3)c2)c1 (stereo unspecified) | > 20000 | 1000 to 10000 | > 20000
CS(=O)(=O)c1cccc(-c2cccc(OCC(O)CN3CCc4ccccc4C3)c2)c1 (stereo unspecified) | 1000 to 10000 | 101 to 1000 | > 20000
Cc1ccc(F)c(-c2cccc(OCC(O)CN3CCc4ccccc4C3)c2)c1 (stereo unspecified) | 1000 to 10000 | 101 to 1000 | > 20000
CN(CC(O)CN1CCc2ccccc2C1)c1cccc(CNC2CCOCC2)c1 (stereo unspecified) | 1000 to 10000 | < 100 | > 20000
OC(COc1cccc(-c2cccnc2F)c1)CN1CCc2ccccc2C1 (stereo unspecified) | 1000 to 10000 | 101 to 1000 | > 20000
Cn1ccc2ccc(-c3cccc(OCC(O)CN4CCc5ccccc5C4)c3)nc21 (stereo unspecified) | 101 to 1000 | < 100 | > 20000
N#Cc1ccccc1-c1cccc(OCC(O)CN2CCc3ccccc3C2)c1 (stereo unspecified) | 1000 to 10000 | 101 to 1000 | 10000 to 40000
Cn1ccc(C(=O)Nc2cccc(OCC(O)CN3CCc4ccccc4C3)c2)n1 (stereo unspecified) | 1000 to 10000 | 1000 to 10000 | > 20000
OC(COc1cccc(-c2ccccc2Cl)c1)CN1CCc2ccccc2C1 (stereo unspecified) | 1000 to 10000 | 101 to 1000 | 10000 to 40000
O=C(Nc1cccc(OCC(O)CN2CCc3ccccc3C2)c1)c1cncnc1 (stereo unspecified) | 1000 to 10000 | 1000 to 10000 | > 20000
COC(=O)c1cccc(-c2cccc(OCC(O)CN3CCc4ccccc4C3)c2)c1 (stereo unspecified) | > 20000 | 101 to 1000 | > 20000
COc1ccc(Cl)cc1-c1cccc(OCC(O)CN2CCc3ccccc3C2)c1 (stereo unspecified) | 1000 to 10000 | 101 to 1000 | > 20000
Cn1ccc2ccc(-c3cccc(OCC(O)CN4CCc5ccccc5C4)c3)cc21 (stereo unspecified) | 1000 to 10000 | 101 to 1000 | 10000 to 40000
OC(COc1cccc(-c2ccc(C(F)(F)F)cc2C(F)(F)F)c1)CN1CCc2ccccc2C1 (stereo unspecified) | 10000 to 40000 | 101 to 1000 | > 20000
CC1c2ccccc2CCN1CC(O)COc1cccc(-c2ccc3ncn(C)c3c2)c1 (stereo unspecified) | > 20000 | 101 to 1000 | 1000 to 10000
CN1CCN(c2ccc(-c3cccc(OCC(O)CN4CCc5ccccc5C4)c3)cn2)CC1 (stereo unspecified) | 1000 to 10000 | 101 to 1000 | 1000 to 10000
Cn1cnc(C(=O)Nc2cccc(OCC(O)CN3CCc4ccccc4C3)c2)c1 (stereo unspecified) | 1000 to 10000 | 1000 to 10000 | > 20000
CC(C)n1cnc2ccc(-c3cccc(OCC(O)CN4CCc5ccccc5C4)c3)cc21 (stereo unspecified) | 101 to 1000 | 101 to 1000 | 10000 to 40000
CN(C)c1ncc(-c2cccc(OCC(O)CN3CCc4ccccc4C3)c2)cn1 (stereo unspecified) | 1000 to 10000 | 101 to 1000 | 10000 to 40000
Cc1ccncc1-c1cccc(OCC(O)CN2CCc3ccccc3C2)c1 (stereo unspecified) | 101 to 1000 | 101 to 10000 | 10000 to 40000
Cn1cnc2ccc(-c3cccc(NCC(O)CN4CCc5ccccc5C4)n3)cc21 (stereo unspecified) | 1000 to 10000 | 101 to 1000 | > 20000
O=C1COc2ccc(-c3cccc(OCC(O)CN4CCc5ccccc5C4)c3)cc2N1 (stereo unspecified) | 1000 to 10000 | 101 to 1000 | 10000 to 40000

Compound | EC50 [1] [nM] | IC50 (PRMT5/MEP50 complex) [nM] | EC50 [2] [nM]
OC(COc1cccc(-c2cnc3ccccc3c2)c1)CN1CCc2ccccc2C1 (stereo unspecified) | 1000 to 10000 | 101 to 1000 | 10000 to 40000
OC(COc1cccc(-c2ccc3ncn(-c4ccccc4)c3c2)c1)CN1CCc2ccccc2C1 (stereo unspecified) | 1000 to 10000 | 101 to 1000 | > 20000
Cn1cnc2ccc(-c3ccnc(NCC(O)CN4CCc5ccccc5C4)c3)cc21 (stereo unspecified) | 101 to 1000 | < 100 | 1000 to 10000
OC(COc1cccc(-c2ccc3cnoc3c2)c1)CN1CCc2ccccc2C1 (stereo unspecified) | 10000 to 40000 | 1000 to 10000 | > 20000
Cn1cnc2ccc(-c3cncc(NCC(O)CN4CCc5ccccc5C4)n3)cc21 (stereo unspecified) | 101 to 1000 | 101 to 1000 | > 20000
COc1ccc(-c2cccc(OCC(O)CN3CCc4ccccc4C3)c2)c(Cl)c1 (stereo unspecified) | 1000 to 10000 | 101 to 1000 | 10000 to 40000
OC(COc1cccc(-c2cccc3c2oc2ccccc23)c1)CN1CCc2ccccc2C1 (stereo unspecified) | 1000 to 10000 | 101 to 1000 | 10000 to 40000
OC(COc1cccc(-c2ccc3ncn(Cc4ccccc4)c3c2)c1)CN1CCc2ccccc2C1 (stereo unspecified) | 1000 to 10000 | < 100 | 10000 to 40000
O=C(Nc1cccc(OCC(O)CN2CCc3ccccc3C2)c1)c1cnccn1 (stereo unspecified) | 1000 to 10000 | 101 to 1000 | > 20000
OC(COc1cccc(-c2ccc3nn[nH]c3c2)c1)CN1CCc2ccccc2C1 (stereo unspecified) | 1000 to 10000 | 101 to 1000 | 1000 to 10000
O=c1[nH]c2ccc(-c3cccc(OCC(O)CN4CCc5ccccc5C4)c3)cc2[nH]1 (stereo unspecified) | 101 to 20000 | 101 to 1000 | 10000 to 20000
Cn1ncc2cc(-c3cccc(OCC(O)CN4CCc5ccccc5C4)c3)ccc21 (stereo unspecified) | 1000 to 10000 | < 100 | 10000 to 40000
CC(=O)Nc1cccc(-c2cccc(OCC(O)CN3CCc4ccccc4C3)c2)c1 (stereo unspecified) | 101 to 1000 | 101 to 1000 | > 20000
CC(C)(C)OCc1cccc(-c2cccc(OCC(O)CN3CCc4ccccc4C3)c2)c1 (stereo unspecified) | 1000 to 10000 | 101 to 1000 | > 20000
CN(C)c1ccc(-c2cccc(OCC(O)CN3CCc4ccccc4C3)c2)cc1 (stereo unspecified) | 1000 to 10000 | 101 to 1000 | > 20000
Oc1cccc(-c2cccc(OCC(O)CN3CCc4ccccc4C3)c2)c1 (stereo unspecified) | 1000 to 10000 | 101 to 1000 | 10000 to 40000
CS(=O)(=O)Nc1ccc(-c2cccc(OCC(O)CN3CCc4ccccc4C3)c2)cc1 (stereo unspecified) | 1000 to 10000 | 101 to 1000 | 10000 to 40000
N#Cc1ccc(-c2cccc(OCC(O)CN3CCc4ccccc4C3)c2)cc1 (stereo unspecified) | 1000 to 10000 | 101 to 1000 | 10000 to 40000
CNC(=O)c1cncc(-c2cccc(OCC(O)CN3CCc4ccccc4C3)c2)c1 (stereo unspecified) | 1000 to 10000 | 1000 to 10000 | > 20000
OC(COc1cccc(-c2csc3ccccc23)c1)CN1CCc2ccccc2C1 (stereo unspecified) | 1000 to 10000 | 101 to 1000 | > 20000
O=C(c1cccc(-c2cccc(OCC(O)CN3CCc4ccccc4C3)c2)c1)N1CCOCC1 (stereo unspecified) | 1000 to 10000 | 101 to 1000 | > 20000
COc1ccc(Cn2cnc3ccc(-c4cccc(OCC(O)CN5CCc6ccccc6C5)c4)cc32)cc1 (stereo unspecified) | 1000 to 10000 | 101 to 1000 | 10000 to 40000
OC(COc1cccc(-c2ccccc2C(F)(F)F)c1)CN1CCc2ccccc2C1 (stereo unspecified) | 1000 to 10000 | 101 to 1000 | > 20000

Compound | EC50 [1] [nM] | IC50 (PRMT5/MEP50 complex) [nM] | EC50 [2] [nM]
OC(COc1cccc(-c2ccc(C(F)(F)F)cc2Cl)c1)CN1CCc2ccccc2C1 (stereo unspecified) | 10000 to 40000 | 101 to 1000 | > 20000
OC(COc1cccc(-c2ccc3nc[nH]c3c2)c1)CN1CCc2ccccc2C1 (stereo unspecified) | 1000 to 10000 | 101 to 1000 | 10000 to 40000
Cn1cnc2ccc(-c3ccnc(NCC(O)CN4CCc5ccccc5C4)n3)cc21 (stereo unspecified) | 101 to 1000 | 101 to 1000 | 1000 to 10000
Cn1nccc1C(=O)Nc1cccc(OCC(O)CN2CCc3ccccc3C2)c1 (stereo unspecified) | 1000 to 10000 | 1000 to 10000 | > 20000
Cn1cnc2ccc(-c3cccc(NCC(O)CN4CCc5ccccc5C4)c3)cc21 (stereo unspecified) | 101 to 1000 | < 100 | 1000 to 10000
Cn1cnc2ccc(-c3cccc(OC[C@@H](O)CN4CCc5ccccc5C4)c3)cc21 | 1000 to 10000 | 101 to 1000 | 1000 to 10000
OC(COc1cccc(-c2ccc3ncn(C4CCOCC4)c3c2)c1)CN1CCc2ccccc2C1 (stereo unspecified) | 101 to 1000 | 101 to 1000 | 1000 to 10000
Cn1ccc2cnc(-c3cccc(OCC(O)CN4CCc5ccccc5C4)c3)nc21 (stereo unspecified) | 101 to 1000 | < 100 | > 20000
Cn1cnc2ccc(-c3cccc(OC[C@H](O)CN4CCc5ccccc5C4)c3)cc21 | 101 to 1000 | < 100 | 1000 to 10000
Cn1ncc2ccc(-c3cc(COCC(O)CN4CCc5ccccc5C4)on3)cc21 (stereo unspecified) | 1000 to 10000 | 101 to 1000 | > 20000
OC(COc1cccc(-c2ccc3c(c2)OCCO3)c1)CN1CCc2ccccc2C1 (stereo unspecified) | 1000 to 10000 | 101 to 1000 | 10000 to 40000
COc1ccc(-c2cccc(OCC(O)CN3CCc4ccccc4C3)c2)cc1Cl (stereo unspecified) | 10000 to 40000 | 101 to 1000 | > 20000
OC(COc1cccc(-c2ccc3[nH]ncc3c2)c1)CN1CCc2ccccc2C1 (stereo unspecified) | 1000 to 10000 | 101 to 1000 | > 20000
COc1ccc(-c2cccc(OCC(O)CN3CCc4ccccc4C3)c2)c(C)c1 (stereo unspecified) | 1000 to 10000 | 101 to 1000 | 10000 to 40000
O=C1NCc2ccc(-c3cccc(OCC(O)CN4CCc5ccccc5C4)c3)cc21 (stereo unspecified) | 1000 to 10000 | 101 to 1000 | 10000 to 40000
O=C(c1cccc(-c2cccc(OCC(O)CN3CCc4ccccc4C3)c2)c1)N1CCCC1 (stereo unspecified) | 1000 to 10000 | 101 to 1000 | 10000 to 40000
CC(=O)c1ccc(-c2cccc(OCC(O)CN3CCc4ccccc4C3)c2)cc1 (stereo unspecified) | 1000 to 10000 | 101 to 1000 | > 20000
NC(=O)c1cccc(-c2cccc(OCC(O)CN3CCc4ccccc4C3)c2)c1 (stereo unspecified) | 1000 to 10000 | 101 to 1000 | > 20000
OC(COc1cccc(-c2ccccc2Oc2ccccc2)c1)CN1CCc2ccccc2C1 (stereo unspecified) | 1000 to 10000 | 101 to 1000 | > 20000
N#Cc1cccc(-c2cccc(OCC(O)CN3CCc4ccccc4C3)c2)c1 (stereo unspecified) | 1000 to 10000 | 101 to 1000 | > 20000
CS(=O)(=O)c1ccccc1-c1cccc(OCC(O)CN2CCc3ccccc3C2)c1 (stereo unspecified) | 1000 to 10000 | 101 to 1000 | > 20000
